Assay results published in patent publication US20170001988A1, “PIPERIDINE AND PIPERAZINE DERIVATIVES AND THEIR USE IN TREATING VIRAL INFECTIONS AND CANCER” (THE UNITED STATES OF AMERICA, AS REPRESENTED BY THE …, priority 2013, published 2017).
Read-outs that look alike come from different tables or passages of the source.

Assays:
in vitro = settings: human
Source text: (§1) EC50 was generated using the HCV-Luc infection assay and IC50 using the ATPLite assay.
(§2) EC50 was generated using the HCV-Luc infection assay and TC50 using the ATPLite assay.
(§3) The cytotoxicity of the compounds was further evaluated in HepG2 cells and primary human hepatocytes.

HCV-Luc = HCV-Luc infection assay; format: cell-based; settings: for EC50: Hepatitis C virus
Huh7.5.1 cells = assay: in vitro; settings: human
Source text: as §1, §2, §3

Compound: CCN1CCC(N(CCc2ccccc2)Cc2ccccc2)CC1 [Et, N-Benzyl-1-ethyl-N-phenethylpiperidin-4-amine]
- CC50 (in vitro): 35.3 µM
- EC50 (HCV-Luc; Table 6, read-out: EC50): 0.039 µM

Compound: FC(F)(F)CN1CCN([C@H](c2ccccc2)c2ccc(Cl)cc2)CC1 [CF3CH2 (R), (R)-1-((4-Chlorophenyl)(phenyl)methyl)-4-(2,2,2-trifluoroethyl)piperazine]
- CC50 (Huh7.5.1 cells): > 100 µM
- EC50 (HCV-Luc; Table 3, read-out: EC50): > 31.6 µM

Compound: [2H]C([2H])([2H])CN1CCN([C@@H](c2ccccc2)c2ccc(Cl)cc2)CC1 [CD3CH2 (S), (S)-1-((4-Chlorophenyl)(phenyl)methyl)-4-ethyl(2,2,2-d3)piperazine]
- CC50 (Huh7.5.1 cells): 71.3 ± 11.4 µM

Compound: OCCOCCN1CCN(C(c2ccccc2)c2ccc(Cl)cc2)CC1 (racemic) [CH2CH2OCH2CH2OH (R,S), 2-(2-(4-((4-Chlorophenyl)(phenyl)methyl)piperazin-1-yl)ethoxy)ethanol]
- CC50 (in vitro; Huh7.5.1 cells): 42.6 ± 1.8 µM
- Selective Index (HCV-Luc): 1331
- EC50 (HCV-Luc; Table 3, read-out: EC50): 0.032 ± 0.011 µM

Compound: N#Cc1ccc(CN2CCC(N(CCc3ccccc3)Cc3ccccc3)CC2)cc1 [4-Cyanobenzyl, 4-((4-(Benzyl(phenethyl)amino)piperidin-1-yl)methyl)benzonitrile]
- CC50 (in vitro): 100 µM
- EC50 (HCV-Luc; Table 6, read-out: EC50): 5.86 µM

Compound: Clc1ccc(C(c2ccc(Cl)cc2)N2CCOCC2)cc1
- CC50 (Huh7.5.1 cells): 62.1 ± 2.8 µM
- EC50 (HCV-Luc; Table 5, read-out: EC50): 29.7 ± 0.1 µM
- Selective Index (HCV-Luc; Table 5): 2

Compound: Clc1ccc(C(c2ccc(Cl)cc2)N2CCCCC2)cc1
- CC50 (Huh7.5.1 cells): 69 ± 0.9 µM
- EC50 (HCV-Luc; Table 5, read-out: EC50): 17.4 ± 2.8 µM
- Selective Index (HCV-Luc; Table 5): 4

Compound: FC(F)(F)CN1CCC(N(CCc2ccccc2)Cc2ccccc2)CC1 [CF3CH2—, N-Benzyl-N-phenethyl-1-(2,2,2-trifluoroethyl)piperidin-4-amine]
- CC50 (in vitro): > 100 µM
- EC50 (HCV-Luc; Table 6, read-out: EC50): > 31.6 µM

Compound: c1ccc(CCN(Cc2ccccc2)C2CCN(c3ccccc3)CC2)cc1 [Phenyl, N-Benzyl-N-phenethyl-1-phenylpiperidin-4-amine]
- CC50 (in vitro): > 100 µM
- EC50 (HCV-Luc): > 31.6 µM

Compound: COc1cccc(CN2CCC(N(CCc3ccccc3)Cc3ccccc3)CC2)c1 [3-Methoxybenzyl, N-Benzyl-1-(3-methoxybenzyl)-N-phenethylpiperidin-4-amine]
- CC50 (in vitro): 45.2 µM
- EC50 (HCV-Luc; Table 6, read-out: EC50): 1.57 µM

Compound: FC(F)(F)c1ccc(CN2CCC(N(CCc3ccccc3)Cc3ccccc3)CC2)cc1 [4-Trifluoromethylbenzyl, N-Benzyl-N-phenethyl-1-(4-(trifluoromethyl)benzyl)piperidin-4-amine]
- CC50 (in vitro): > 100 µM
- EC50 (HCV-Luc; Table 6, read-out: EC50): > 10 µM

Compound: O=C(O)COCCN1CCN(C(c2ccccc2)c2ccc(Cl)cc2)CC1 (racemic) [CH2CH2OCH2COOH (R,S), 2-(2-(4-((4-Chlorophenyl)(phenyl)methyl)piperazin-1-yl)ethoxy) acetic acid]
- EC50 (HCV-Luc; Table 3, read-out: EC50): > 31.6 µM

Compound: CCCN1CCN([C@H](c2ccccc2)c2ccc(Cl)cc2)CC1 [n-Pr (R), (R)-1-((4-Chlorophenyl)(phenyl)methyl)-4-propylpiperazine]
- CC50 (Huh7.5.1 cells): 48.5 ± 1.1 µM
- EC50 (HCV-Luc; Table 3, read-out: EC50): 0.024 ± 0.005 µM
- Selective Index (HCV-Luc; Table 3): 2021

Compound: CCN1CCN([C@H](c2ccccc2)c2ccc(Cl)cc2)CC1 [Et (R), (R)-1-((4-Chlorophenyl)(phenyl)methyl)-4-ethylpiperazine]
- CC50 (Huh7.5.1 cells): 37.9 ± 3.3 µM

Compound: NC(=O)COCCN1CCN(C(c2ccccc2)c2ccc(Cl)cc2)CC1 (racemic) [CH2CH2OCH2CONH2 (R,S), 2-(2-(4-((4-Chlorophenyl)(phenyl)methyl)piperazin-1-yl)ethoxy)acetamide]
- CC50 (Huh7.5.1 cells): > 100 µM
- EC50 (HCV-Luc; Table 3, read-out: EC50): 0.103 ± 0.052 µM
- Selective Index (HCV-Luc; Table 3): >910

Compound: [2H]C([2H])([2H])N1CCN([C@H](c2ccccc2)c2ccc(Cl)cc2)CC1 [CD3 (R), (R)-1-((4-Chlorophenyl)(phenyl)methyl)-4-methyl(d3)piperazine]
- CC50 (Huh7.5.1 cells): 46.7 ± 0.4 µM
- EC50 (HCV-Luc; Table 3, read-out: EC50): 0.04 ± 0.017 µM

Compound: Clc1ccc([C@H](c2ccccc2)N2CCN(C3CCCC3)CC2)cc1 [Cyclopentyl (S), (S)-1-((4-Chlorophenyl)(phenyl)methyl)-4-cyclopentylpiperazine]
- CC50 (Huh7.5.1 cells): 30.4 ± 2.8 µM
- EC50 (HCV-Luc; Table 3, read-out: EC50): 0.019 ± 0.006 µM
- Selective Index (HCV-Luc; Table 3): 1600

Compound: CCCCN1CCN([C@H](c2ccccc2)c2ccc(Cl)cc2)CC1 [n-Bu (R), (R)-1-Butyl-4-((4-chlorophenyl)(phenyl)methyl)piperazine]
- CC50 (Huh7.5.1 cells): 40.8 ± 0.4 µM
- EC50 (HCV-Luc; Table 3, read-out: EC50): 0.195 ± 0.084 µM
- Selective Index (HCV-Luc; Table 3): 309

Compound: CC(C)CN1CCN([C@H](c2ccccc2)c2ccc(Cl)cc2)CC1 [2-methyl-1-propyl (R), (R)-1-((4-Chlorophenyl)(phenyl)methyl)-4-isobutylpiperazine]
- CC50 (Huh7.5.1 cells): 58.2 ± 7.2 µM
- EC50 (HCV-Luc; Table 3, read-out: EC50): 0.232 ± 0.061 µM
- Selective Index (HCV-Luc; Table 3): 251

Compound: CCCCN1CCN([C@@H](c2ccccc2)c2ccc(Cl)cc2)CC1 [n-Bu (S), (S)-1-Butyl-4-((4-chlorophenyl)(phenyl)methyl)piperazine]
- CC50 (Huh7.5.1 cells): 31.1 ± 4.2 µM
- EC50 (HCV-Luc; Table 3, read-out: EC50): 0.042 ± 0.023 µM
- Selective Index (HCV-Luc; Table 3): 740

Compound: CCCN1CCN([C@@H](c2ccccc2)c2ccc(Cl)cc2)CC1 [n-Pr (S), (S)-1-((4-Chlorophenyl)(phenyl)methyl)-4-propylpiperazine]
- CC50 (Huh7.5.1 cells): 39.7 ± 0.9 µM
- EC50 (HCV-Luc; Table 3, read-out: EC50): 0.032 ± 0.018 µM
- Selective Index (HCV-Luc; Table 3): 1241
